Assay results as given in patent publication US8703768B2, “Nitrogen containing heteroaryl compounds” (Hoffmann-La Roche Inc., priority 2010, dated 2014).

The compounds below were run against human PDE10A (Homo sapiens (Human), UniProt Q9Y233) (assay: human PDE10A full length Scintillation Proximity Assay (SPA)). Details: 50 nM cGMP and 50 nM [3H]-cGMP, 20 minutes at room temperature; read-out: PDE10A inhibition IC50.
Assay type: biochemical
Description: The following test was carried out in order to determine the activity of the compounds of the present invention.
The human PDE10A full length assay was performed in 96-well micro titer plates. […] Non-specific activity was tested without the enzyme. The reaction was initiated by the addition of the substrate solution (cGMP and [^3H]-cGMP) and allowed to progress for 20 minutes at room temperature. The reaction was terminated by adding 25 μl of YSi-SPA scintillation beads (GE Healthcare, cat. # RPNQ0150) in 18 mM zinc sulphate solution (stop reagent). After 1 h under shaking, the plate was centrifuged one minute at 170 g to allow beads to settle. Afterwards, radioactive counts were measured on a Perkin Elmer TopCount Scintillation plate reader.

Sequence of human PDE10A (Q9Y233 other isoform, or with tags, fused parts or gaps): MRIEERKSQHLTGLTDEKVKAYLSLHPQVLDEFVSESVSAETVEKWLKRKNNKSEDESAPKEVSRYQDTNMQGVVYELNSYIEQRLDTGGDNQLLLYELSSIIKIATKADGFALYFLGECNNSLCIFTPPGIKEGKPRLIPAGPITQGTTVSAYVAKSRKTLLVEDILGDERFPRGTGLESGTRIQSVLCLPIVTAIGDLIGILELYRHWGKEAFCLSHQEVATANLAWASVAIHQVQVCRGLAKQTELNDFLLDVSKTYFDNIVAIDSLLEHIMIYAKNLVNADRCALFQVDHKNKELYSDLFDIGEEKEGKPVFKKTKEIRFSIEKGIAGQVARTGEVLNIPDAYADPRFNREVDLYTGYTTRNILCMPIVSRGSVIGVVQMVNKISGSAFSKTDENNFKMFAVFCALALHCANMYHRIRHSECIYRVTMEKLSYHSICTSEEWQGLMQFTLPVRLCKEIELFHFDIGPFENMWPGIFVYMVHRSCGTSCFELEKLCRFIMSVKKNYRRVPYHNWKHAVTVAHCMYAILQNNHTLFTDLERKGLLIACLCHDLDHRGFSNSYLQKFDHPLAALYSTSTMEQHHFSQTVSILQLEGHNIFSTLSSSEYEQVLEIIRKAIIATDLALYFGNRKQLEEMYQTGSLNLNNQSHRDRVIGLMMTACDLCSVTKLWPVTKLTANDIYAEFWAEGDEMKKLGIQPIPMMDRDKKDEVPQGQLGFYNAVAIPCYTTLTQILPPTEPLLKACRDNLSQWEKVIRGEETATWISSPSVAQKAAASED

| SMILES | IC50 [nM] |
| --- | --- |
| CNC(=O)c1nc(-c2ccccc2)sc1NC(=O)c1nc(C2CC2)ccc1Nc1cncnc1 [Example 64, 6-Cyclopropyl-3-(pyrimidin-5-ylamino)-pyridine-2-carboxylic acid (4-methylcarbamoyl-2-phenyl-thiazol-5-yl)-amide] | 1110 |
| CC(CO)NC(=O)c1ccncc1NC(=O)c1nc(C2CC2)ccc1Nc1cncnc1 (centres unmarked) [Example 66, 6-Cyclopropyl-3-(pyrimidin-5-ylamino)-pyridine-2-carboxylic acid [4-(2-hydroxy-1-methyl-ethylcarbamoyl)-pyridin-3-yl]-amide] | 47.8 |
| O=C(NCCO)c1ccncc1NC(=O)c1nc(C2CC2)ccc1Nc1cncnc1 [Example 68, 6-Cyclopropyl-3-(pyrimidin-5-ylamino)-pyridine-2-carboxylic acid [4-(2-hydroxy-ethylcarbamoyl)-pyridin-3-yl]-amide] | 3.3 |
| CC(C)(O)CNC(=O)c1ccncc1NC(=O)c1nc(C2CC2)ccc1Nc1cncnc1 [Example 70, 6-Cyclopropyl-3-(pyrimidin-5-ylamino)-pyridine-2-carboxylic acid [4-(2-hydroxy-2-methyl-propylcarbamoyl)-pyridin-3-yl]-amide] | 2.1 |
| CN(CCCO)C(=O)c1ccncc1NC(=O)c1nc(C2CC2)ccc1Nc1cncnc1 [Example 71, 6-Cyclopropyl-3-(pyrimidin-5-ylamino)-pyridine-2-carboxylic acid {4-[(3-hydroxy-propyl)-methyl-carbamoyl]-pyridin-3-yl}-amide] | 56.4 |
| COCC(C)NC(=O)c1ccncc1NC(=O)c1nc(C2CC2)ccc1Nc1cncnc1 (centres unmarked) [Example 72, 6-Cyclopropyl-3-(pyrimidin-5-ylamino)-pyridine-2-carboxylic acid [4-(2-methoxy-1-methyl-ethylcarbamoyl)-pyridin-3-yl]-amide] | 4.2 |
| CN(CCO)C(=O)c1ccncc1NC(=O)c1nc(C2CC2)ccc1Nc1cncnc1 [Example 73, 6-Cyclopropyl-3-(pyrimidin-5-ylamino)-pyridine-2-carboxylic acid {4-[(2-hydroxy-ethyl)-methyl-carbamoyl]-pyridin-3-yl}-amide] | 18.9 |
| CN(C)C(=O)c1nn(-c2ccccn2)cc1NC(=O)c1nc(C2CC2)ccc1Nc1cncnc1 [Example 74, 6-Cyclopropyl-3-(pyrimidin-5-ylamino)-pyridine-2-carboxylic acid (3-dimethylcarbamoyl-1-pyridin-2-yl-1H-pyrazol-4-yl)-amide] | 7.3 |
| O=C(NC1CCCCC1)c1ccncc1NC(=O)c1nc(C2CC2)ccc1Nc1cncnc1 [Example 78, 6-Cyclopropyl-3-(pyrimidin-5-ylamino)-pyridine-2-carboxylic acid (4-cyclohexylcarbamoyl-pyridin-3-yl)-amide] | 2 |
| O=C(Nc1cnccc1C(=O)N1CC(F)(F)C1)c1nc(C2CC2)ccc1Nc1cncnc1 [Example 79, 6-Cyclopropyl-3-(pyrimidin-5-ylamino)-pyridine-2-carboxylic acid [4-(3,3-difluoro-azetidine-1-carbonyl)-pyridin-3-yl]-amide] | 29.6 |
| CNC(=O)c1cn2cc(-c3ccccc3)nc2cc1NC(=O)c1nc(C2CC2)ccc1Nc1cncnc1 [Example 81, 7-{[6-Cyclopropyl-3-(pyrimidin-5-ylamino)-pyridine-2-carbonyl]-amino}-2-phenyl-imidazo[1,2-a]pyridine-6-carboxylic acid methylamide] | 0.4 |
| CNC(=O)c1nn(C)cc1NC(=O)c1nc(CC(C)C)ncc1Nc1cncnc1 [Example 83, 2-Isobutyl-5-(pyrimidin-5-ylamino)-pyrimidine-4-carboxylic acid (1-methyl-3-methylcarbamoyl-1H-pyrazol-4-yl)-amide] | 5.5 |
| CNC(=O)c1nn(C)cc1NC(=O)c1nc(C2CCCCC2)ncc1Nc1cncnc1 [Example 84, 2-Cyclohexyl-5-(pyrimidin-5-ylamino)-pyrimidine-4-carboxylic acid (1-methyl-3-methylcarbamoyl-1H-pyrazol-4-yl)-amide] | 1.9 |
| O=C(NC1CC1)c1ccsc1NC(=O)c1nc(C2CC2)ccc1Nc1cncnc1 [Example 89, 6-Cyclopropyl-3-(pyrimidin-5-ylamino)-pyridine-2-carboxylic acid (3-cyclopropylcarbamoyl-thiophen-2-yl)-amide] | 0.5 |
| O=C(Nc1sccc1C(=O)N1CCOCC1)c1nc(C2CC2)ccc1Nc1cncnc1 [Example 90, 6-Cyclopropyl-3-(pyrimidin-5-ylamino)-pyridine-2-carboxylic acid [3-(morpholine-4-carbonyl)-thiophen-2-yl]-amide] | 0.4 |
| CC(C)c1ncc(Nc2cncnc2)c(C(=O)Nc2cnccc2C(=O)NCC(C)(C)O)n1 [Example 92, 2-Isopropyl-5-(pyrimidin-5-ylamino)-pyrimidine-4-carboxylic acid [4-(2-hydroxy-2-methyl-propylcarbamoyl)-pyridin-3-yl]-amide] | 6.4 |
| CC(C)(O)CNC(=O)c1ccncc1NC(=O)c1nc(C(C)(C)C)ncc1Nc1cncnc1 [Example 93, 2-tert-Butyl-5-(pyrimidin-5-ylamino)-pyrimidine-4-carboxylic acid [4-(2-hydroxy-2-methyl-propylcarbamoyl)-pyridin-3-yl]-amide] | 4.3 |
| CCN(CC)C(=O)c1ccc(C(=O)NC)c(NC(=O)c2nc(C(C)(C)C)ncc2Nc2cncnc2)c1 [Example 94, 2-{[2-tert-Butyl-5-(pyrimidin-5-ylamino)-pyrimidine-4-carbonyl]-amino}-N^4,N^4-diethyl-N^1-methyl-terephthalamide] | 392 |
| Cn1cc(NC(=O)c2nc(C3CC3)cnc2Nc2cncnc2)c(C(=O)NCC(C)(C)O)n1 [Example 95, 6-Cyclopropyl-3-(pyrimidin-5-ylamino)-pyrazine-2-carboxylic acid [3-(2-hydroxy-2-methyl-propylcarbamoyl)-1-methyl-1H-pyrazol-4-yl]-amide] | 1.8 |
| CNC(=O)c1nn(C)cc1NC(=O)c1nc(C2CCCO2)cnc1Nc1cncnc1 (centres unmarked) [Example 96, 3-(Pyrimidin-5-ylamino)-6-(tetrahydro-furan-2-yl)-pyrazine-2-carboxylic acid (1-methyl-3-methylcarbamoyl-1H-pyrazol-4-yl)-amide] | 96 |

Continued by falling IC50, values first:

| IC50 [nM] | SMILES |
| --- | --- |
| 215 | CN(CC(O)CO)C(=O)c1ccncc1NC(=O)c1nc(C2CC2)ccc1Nc1cncnc1 (centres unmarked) [Example 86, 6-Cyclopropyl-3-(pyrimidin-5-ylamino)-pyridine-2-carboxylic acid {4-[(2,3-dihydroxy-propyl)-methyl-carbamoyl]-pyridin-3-yl}-amide] |
| 180 | O=C(Nc1cnccc1C(=O)N1CCC(O)C1)c1nc(C2CC2)ccc1Nc1cncnc1 (centres unmarked) [Example 87] |
| 105 | O=C(Nc1cnccc1C(=O)N1CCCC1CO)c1nc(C2CC2)ccc1Nc1cncnc1 (centres unmarked) [Example 80, 6-Cyclopropyl-3-(pyrimidin-5-ylamino)-pyridine-2-carboxylic acid [4-(2-hydroxymethyl-pyrrolidine-1-carbonyl)-pyridin-3-yl]-amide] |
| 58.5 | O=C(Nc1cnccc1C(=O)N1CC(O)C1)c1nc(C2CC2)ccc1Nc1cncnc1 [Example 82, 6-Cyclopropyl-3-(pyrimidin-5-ylamino)-pyridine-2-carboxylic acid [4-(3-hydroxy-azetidine-1-carbonyl)-pyridin-3-yl]-amide] |
| 27.5 | CC(C)c1cc(C(=O)N2CCOCC2)c(NC(=O)c2nc(C3CC3)ccc2Nc2cncnc2)s1 [Example 91, 6-Cyclopropyl-3-(pyrimidin-5-ylamino)-pyridine-2-carboxylic acid [5-isopropyl-3-(morpholine-4-carbonyl)-thiophen-2-yl]-amide] |
| 8.8 | CNC(=O)c1nn(C)cc1NC(=O)c1nc(C(C)C)ncc1Nc1cncnc1 [Example 75, 2-Isopropyl-5-(pyrimidin-5-ylamino)-pyrimidine-4-carboxylic acid (1-methyl-3-methylcarbamoyl-1H-pyrazol-4-yl)-amide] |
| 7.9 | CNC(=O)c1nn(C)cc1NC(=O)c1nc(C2CC2)ncc1Nc1cncnc1 [Example 76, 2-Cyclopropyl-5-(pyrimidin-5-ylamino)-pyrimidine-4-carboxylic acid (1-methyl-3-methylcarbamoyl-1H-pyrazol-4-yl)-amide] |
| 4.2 | O=C(Nc1cnccc1C(=O)N1CCC1)c1nc(C2CC2)ccc1Nc1cncnc1 [Example 67, 6-Cyclopropyl-3-(pyrimidin-5-ylamino)-pyridine-2-carboxylic acid [4-(azetidine-1-carbonyl)-pyridin-3-yl]-amide] |
| 4.1 | O=C(NCC(O)CO)c1ccncc1NC(=O)c1nc(C2CC2)ccc1Nc1cncnc1 (centres unmarked) [Example 69, 6-Cyclopropyl-3-(pyrimidin-5-ylamino)-pyridine-2-carboxylic acid [4-(2,3-dihydroxy-propylcarbamoyl)-pyridin-3-yl]-amide] |
| 3.4 | CNC(=O)c1nn(C)cc1NC(=O)c1nc(C(C)(C)C)ncc1Nc1cncnc1 [Example 77, 2-tert-Butyl-5-(pyrimidin-5-ylamino)-pyrimidine-4-carboxylic acid (1-methyl-3-methylcarbamoyl-1H-pyrazol-4-yl)-amide] |
| 1.4 | CNC(=O)c1nc(-c2ccccn2)sc1NC(=O)c1nc(C2CC2)ccc1Nc1cncnc1 [Example 65, 6-Cyclopropyl-3-(pyrimidin-5-ylamino)-pyridine-2-carboxylic acid (4-methylcarbamoyl-2-pyridin-2-yl-thiazol-5-yl)-amide] |
| 1.1 | CC(C)(O)CNC(=O)c1ncncc1NC(=O)c1nc(C2CC2)cnc1Nc1cncnc1 [Example 97, 5-{[6-Cyclopropyl-3-(pyrimidin-5-ylamino)-pyrazine-2-carbonyl]-amino}-pyrimidine-4-carboxylic acid (2-hydroxy-2-methyl-propyl)-amide] |
